Measured values: PubChem BioAssay (NCI)
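Method: 48-hour compound exposure of cells in 96-well plates, five concentrations, linear interpolation of endpoints. TGI: concentration producing complete growth inhibition.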

Assays:
Assay in all cases: inhibition of tumour cell growth, NCI panel, 48 h
786-0 renal = system: 786-0 renal
A498 renal = system: A498 renal
A549 NSCLC = system: A549 NSCLC
ACHN renal = system: ACHN renal
BT-549 breast = system: BT-549 breast
CAKI-1 renal = system: CAKI-1 renal
CCRF-CEM leukemia = system: CCRF-CEM leukemia
COLO 205 colon = system: COLO 205 colon
DU-145 prostate = system: DU-145 prostate
EKVX NSCLC = system: EKVX NSCLC
HCC-2998 colon = system: HCC-2998 colon
HCT-116 colon = system: HCT-116 colon
HCT-15 colon = system: HCT-15 colon
HL-60(TB) leukemia = system: HL-60(TB) leukemia
HOP-62 NSCLC = system: HOP-62 NSCLC
HOP-92 NSCLC = system: HOP-92 NSCLC
HS 578T breast = system: HS 578T breast
HT29 colon = system: HT29 colon
IGROV1 ovarian = system: IGROV1 ovarian
K-562 leukemia = system: K-562 leukemia
KM12 colon = system: KM12 colon
LOX IMVI melanoma = system: LOX IMVI melanoma
M14 melanoma = system: M14 melanoma
MALME-3M melanoma = system: MALME-3M melanoma
MCF7 breast = system: MCF7 breast
MDA-MB-435 = system: MDA-MB-435
MDA-N = system: MDA-N
MOLT-4 leukemia = system: MOLT-4 leukemia
NCI-H226 lung = system: NCI-H226 lung
NCI-H23 lung = system: NCI-H23 lung
NCI-H460 lung = system: NCI-H460 lung
NCI-H522 lung = system: NCI-H522 lung
NCI/ADR-RES ovarian = system: NCI/ADR-RES ovarian
OVCAR-3 ovarian = system: OVCAR-3 ovarian
OVCAR-4 ovarian = system: OVCAR-4 ovarian
OVCAR-5 ovarian = system: OVCAR-5 ovarian
OVCAR-8 ovarian = system: OVCAR-8 ovarian
PC-3 prostate = system: PC-3 prostate
RPMI-8226 leukemia = system: RPMI-8226 leukemia
RXF 393 renal = system: RXF 393 renal
SF-268 CNS = system: SF-268 CNS
SF-295 CNS = system: SF-295 CNS
SF-539 CNS = system: SF-539 CNS
SK-MEL-2 melanoma = system: SK-MEL-2 melanoma
SK-MEL-28 melanoma = system: SK-MEL-28 melanoma
SK-MEL-5 melanoma = system: SK-MEL-5 melanoma
SK-OV-3 ovarian = system: SK-OV-3 ovarian
SN12C renal = system: SN12C renal
SNB-19 CNS = system: SNB-19 CNS
SNB-75 CNS = system: SNB-75 CNS
SR leukemia = system: SR leukemia
SW-620 colon = system: SW-620 colon
T-47D breast = system: T-47D breast
TK-10 renal = system: TK-10 renal
U251 CNS = system: U251 CNS
UACC-257 melanoma = system: UACC-257 melanoma
UACC-62 melanoma = system: UACC-62 melanoma
UO-31 renal = system: UO-31 renal
MDA-MB-231 breast = system: MDA-MB-231 breast

In the case of `CCOC(=O)c1c(C)nc2c1c(CN(C)C)c(O)c1[nH]c(C)c(C)nc12`, the TGI (786-0 renal) is reported as 49.5 µM, the TGI (A498 renal) is reported as 40 µM and the TGI (A549 NSCLC) is reported as greater than 100 µM. For the same compound, the TGI (ACHN renal) was 69.9 µM, the TGI (BT-549 breast) was 76 µM and the TGI (CAKI-1 renal) was greater than 100 µM. It also gave a TGI (CCRF-CEM leukemia) of 38.3 µM, a TGI (COLO 205 colon) of 40.4 µM and a TGI (DU-145 prostate) greater than 100 µM. It also gave a TGI (EKVX NSCLC) of 92 µM, a TGI (HCC-2998 colon) of 51 µM and a TGI (HCT-116 colon) of 42.8 µM. It also gave a TGI (HCT-15 colon) greater than 100 µM, a TGI (HL-60(TB) leukemia) of 25.2 µM and a TGI (HOP-62 NSCLC) of 51 µM. For the same compound, the TGI (HOP-92 NSCLC) was 96.6 µM, the TGI (HS 578T breast) was 70.8 µM and the TGI (HT29 colon) was 81.6 µM. It also gave a TGI (IGROV1 ovarian) greater than 100 µM, a TGI (K-562 leukemia) greater than 100 µM and a TGI (KM12 colon) greater than 100 µM. The TGI (LOX IMVI melanoma) was 37.8 µM, the TGI (M14 melanoma) was greater than 100 µM and the TGI (MALME-3M melanoma) was 53.4 µM. The TGI (MCF7 breast) was 52.1 µM, the TGI (MDA-MB-435) was 99.7 µM and the TGI (MDA-N) was 54.7 µM. The TGI (MOLT-4 leukemia) was 85.6 µM, the TGI (NCI-H226 lung) was 62.1 µM and the TGI (NCI-H23 lung) was 89.3 µM. The TGI (NCI-H460 lung) was 61.1 µM, the TGI (NCI-H522 lung) was 42.7 µM and the TGI (NCI/ADR-RES ovarian) was 76.6 µM. For the same compound, the TGI (OVCAR-3 ovarian) was 85.7 µM, the TGI (OVCAR-4 ovarian) was greater than 100 µM and the TGI (OVCAR-5 ovarian) was 94 µM. The TGI (OVCAR-8 ovarian) was 60.4 µM, the TGI (PC-3 prostate) was 54.5 µM and the TGI (RPMI-8226 leukemia) was 43.8 µM. The TGI (RXF 393 renal) was 65.7 µM, the TGI (SF-268 CNS) was 93.1 µM and the TGI (SF-295 CNS) was 62.2 µM. For the same compound, the TGI (SF-539 CNS) was 49.5 µM, the TGI (SK-MEL-2 melanoma) was 43.8 µM and the TGI (SK-MEL-28 melanoma) was 76.9 µM. It also gave a TGI (SK-MEL-5 melanoma) of 29.1 µM, a TGI (SK-OV-3 ovarian) of 92.3 µM and a TGI (SN12C renal) of 38.4 µM. It also gave a TGI (SNB-19 CNS) greater than 100 µM, a TGI (SNB-75 CNS) of 60.7 µM and a TGI (SR leukemia) of 51.5 µM. It also gave a TGI (SW-620 colon) of 95.2 µM, a TGI (T-47D breast) of 74.1 µM and a TGI (TK-10 renal) of 72.8 µM. For the same compound, the TGI (U251 CNS) was 68.7 µM, the TGI (UACC-257 melanoma) was 61.3 µM and the TGI (UACC-62 melanoma) was 30.3 µM. For the same compound, the TGI (UO-31 renal) was greater than 100 µM.
With `Cn1c(=O)c2c(nc3n2CC(=O)N3CCCCl)n(C)c1=O` the TGI (786-0 renal) was greater than 100 µM, the TGI (A498 renal) was greater than 100 µM and the TGI (A549 NSCLC) was greater than 100 µM. The TGI (ACHN renal) was greater than 100 µM, the TGI (BT-549 breast) was greater than 100 µM and the TGI (CAKI-1 renal) was greater than 100 µM. The TGI (CCRF-CEM leukemia) was greater than 100 µM, the TGI (COLO 205 colon) was greater than 100 µM and the TGI (DU-145 prostate) was greater than 100 µM. It also gave a TGI (EKVX NSCLC) greater than 100 µM, a TGI (HCC-2998 colon) greater than 100 µM and a TGI (HCT-116 colon) greater than 100 µM. The TGI (HCT-15 colon) was greater than 100 µM, the TGI (HL-60(TB) leukemia) was greater than 100 µM and the TGI (HOP-62 NSCLC) was greater than 100 µM. For the same compound, the TGI (HOP-92 NSCLC) was greater than 100 µM, the TGI (HS 578T breast) was greater than 100 µM and the TGI (HT29 colon) was greater than 100 µM. It also gave a TGI (IGROV1 ovarian) greater than 100 µM, a TGI (K-562 leukemia) greater than 100 µM and a TGI (KM12 colon) greater than 100 µM. The TGI (LOX IMVI melanoma) was greater than 100 µM, the TGI (M14 melanoma) was greater than 100 µM and the TGI (MCF7 breast) was greater than 100 µM. It also gave a TGI (MDA-MB-231 breast) greater than 100 µM, a TGI (MDA-MB-435) greater than 100 µM and a TGI (MDA-N) greater than 100 µM. The TGI (MOLT-4 leukemia) was greater than 100 µM, the TGI (NCI-H226 lung) was greater than 100 µM and the TGI (NCI-H23 lung) was greater than 100 µM. For the same compound, the TGI (NCI-H460 lung) was greater than 100 µM, the TGI (NCI/ADR-RES ovarian) was greater than 100 µM and the TGI (OVCAR-3 ovarian) was greater than 100 µM. The TGI (OVCAR-4 ovarian) was greater than 100 µM, the TGI (OVCAR-5 ovarian) was greater than 100 µM and the TGI (OVCAR-8 ovarian) was greater than 100 µM. For the same compound, the TGI (PC-3 prostate) was greater than 100 µM, the TGI (RPMI-8226 leukemia) was greater than 100 µM and the TGI (SF-268 CNS) was greater than 100 µM. The TGI (SF-295 CNS) was greater than 100 µM, the TGI (SK-MEL-2 melanoma) was greater than 100 µM and the TGI (SK-MEL-28 melanoma) was greater than 100 µM. The TGI (SK-MEL-5 melanoma) was greater than 100 µM, the TGI (SK-OV-3 ovarian) was greater than 100 µM and the TGI (SN12C renal) was greater than 100 µM. The TGI (SNB-19 CNS) was greater than 100 µM, the TGI (SNB-75 CNS) was greater than 100 µM and the TGI (SW-620 colon) was greater than 100 µM. The TGI (T-47D breast) was greater than 100 µM, the TGI (TK-10 renal) was greater than 100 µM and the TGI (U251 CNS) was greater than 100 µM. The TGI (UACC-257 melanoma) was greater than 100 µM, the TGI (UACC-62 melanoma) was greater than 100 µM and the TGI (UO-31 renal) was greater than 100 µM.
